According to publication PMC6494935, “Glesatinib, a c-MET/SMO Dual Inhibitor, Antagonizes P-glycoprotein Mediated Multidrug Resistance in Cancer Cells” (Frontiers in Oncology, 2019):

Key:
[1] = target: T1, P-glycoprotein (P-gp, ABCB1) (Homo sapiens, UniProt P08183); assay: vanadate-sensitive ATPase stimulation in membrane vesicles; also inhibits [3H]-paclitaxel efflux in KB-C2 cells; assay type: biochemical; design: ABCB1 in membrane vesicles of High Five insect cells
[2] = target: T1, P-glycoprotein (P-gp, ABCB1)

T1 sequence (P08183 whole entry): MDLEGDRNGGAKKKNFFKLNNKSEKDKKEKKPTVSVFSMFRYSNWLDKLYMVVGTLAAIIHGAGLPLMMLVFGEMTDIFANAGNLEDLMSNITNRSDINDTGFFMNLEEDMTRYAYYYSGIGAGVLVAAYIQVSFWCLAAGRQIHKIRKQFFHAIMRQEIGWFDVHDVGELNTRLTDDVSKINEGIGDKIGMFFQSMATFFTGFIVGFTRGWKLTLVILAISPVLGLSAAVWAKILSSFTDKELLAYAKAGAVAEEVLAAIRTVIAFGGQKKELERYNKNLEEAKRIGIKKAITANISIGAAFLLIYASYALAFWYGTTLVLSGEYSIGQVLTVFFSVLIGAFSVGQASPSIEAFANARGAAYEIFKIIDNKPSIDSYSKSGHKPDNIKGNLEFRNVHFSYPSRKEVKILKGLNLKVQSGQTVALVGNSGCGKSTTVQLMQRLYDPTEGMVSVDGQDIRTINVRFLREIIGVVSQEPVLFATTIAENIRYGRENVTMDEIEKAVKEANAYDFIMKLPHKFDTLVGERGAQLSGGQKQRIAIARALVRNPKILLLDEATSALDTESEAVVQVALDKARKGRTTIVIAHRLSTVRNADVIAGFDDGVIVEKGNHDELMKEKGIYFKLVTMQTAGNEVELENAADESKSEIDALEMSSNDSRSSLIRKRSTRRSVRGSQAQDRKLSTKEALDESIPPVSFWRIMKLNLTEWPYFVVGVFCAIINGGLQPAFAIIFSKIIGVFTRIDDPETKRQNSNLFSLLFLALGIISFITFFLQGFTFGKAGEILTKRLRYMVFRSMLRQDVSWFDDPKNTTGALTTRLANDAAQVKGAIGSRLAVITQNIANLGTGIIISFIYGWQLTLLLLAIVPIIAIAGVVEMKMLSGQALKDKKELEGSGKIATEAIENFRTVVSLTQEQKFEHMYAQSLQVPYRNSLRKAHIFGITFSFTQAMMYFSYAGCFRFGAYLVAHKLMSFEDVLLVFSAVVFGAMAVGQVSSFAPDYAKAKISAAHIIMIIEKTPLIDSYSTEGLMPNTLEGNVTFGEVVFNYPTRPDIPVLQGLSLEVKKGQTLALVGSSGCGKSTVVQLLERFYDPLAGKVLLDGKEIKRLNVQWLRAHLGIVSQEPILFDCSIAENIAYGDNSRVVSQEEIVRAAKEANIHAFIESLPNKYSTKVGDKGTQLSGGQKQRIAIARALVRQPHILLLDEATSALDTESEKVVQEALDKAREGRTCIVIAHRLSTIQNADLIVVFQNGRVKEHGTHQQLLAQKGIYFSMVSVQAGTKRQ

Row | SMILES | EC50 [1] [µM] | [3H]-paclitaxel accumulation and efflux in KB-C2 vs parental KB-3-1 cells [2]
1 | COCCNCc1ccc(-c2cc3nccc(Oc4ccc(NC(=S)NC(=O)Cc5ccc(F)cc5)cc4F)c3s2)nc1 [glesatinib] | 3.2 | –
2 | CC(=O)O[C@H]1C(=O)[C@@]2(C)[C@H]([C@H](OC(=O)c3ccccc3)[C@]3(O)C[C@H](OC(=O)[C@H](O)[C@@H](NC(=O)c4ccccc4)c4ccccc4)C(C)=C1C3(C)C)[C@]1(OC(C)=O)CO[C@@H]1C[C@@H]2O [paclitaxel] | – | While in P-gp overexpressing KB-C-2 cells, [^3H]-paclitaxel accumulation decreased significantly as shown in Figures 4A,C.
